# Data as given in article PMC11073699, “Odorant receptors for floral- and plant-derived volatiles in the yellow fever mosquito, Aedes aegypti (Diptera: Culicidae)” (PLOS ONE, 2024).
# “And” between values parts separate entries of the source, which are not always exact repeats. Equal entries are not always repeated.
# Experiments:
# Assay type in all cases: cell-based
# AaegOR55 = biological target: T1, AaegOR55 (Aedes aegypti, UniProt Q16T12); experiment: Two-electrode voltage clamp of Xenopus laevis oocytes expressing AaegOR55/Orco (blends, unitary compounds, concentration-response); settings: for Raw Data (Responses in nA), Indoles 1 unitary compounds / Raw Data (Responses in nA), concentration-response: AaegOR55; for Raw Data (Responses in nA), Indoles 1 unitary compounds: compounds of blend Indoles 1, individual oocytes (Oocyte 1-7); for Raw Data (Responses in nA), concentration-response: individual oocytes (Oocyte 1-9)
# T1 sequence (Q16T12 10-392): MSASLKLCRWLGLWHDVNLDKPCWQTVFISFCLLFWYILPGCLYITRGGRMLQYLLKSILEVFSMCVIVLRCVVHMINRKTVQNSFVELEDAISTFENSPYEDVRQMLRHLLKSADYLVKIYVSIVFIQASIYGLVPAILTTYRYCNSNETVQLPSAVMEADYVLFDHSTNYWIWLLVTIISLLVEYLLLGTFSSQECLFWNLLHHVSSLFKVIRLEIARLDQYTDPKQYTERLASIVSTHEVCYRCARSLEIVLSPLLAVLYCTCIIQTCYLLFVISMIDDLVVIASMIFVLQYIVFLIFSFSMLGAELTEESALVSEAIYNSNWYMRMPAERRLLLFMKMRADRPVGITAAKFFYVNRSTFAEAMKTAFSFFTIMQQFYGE
# T1 sequence (Q178U6 1-478 partner): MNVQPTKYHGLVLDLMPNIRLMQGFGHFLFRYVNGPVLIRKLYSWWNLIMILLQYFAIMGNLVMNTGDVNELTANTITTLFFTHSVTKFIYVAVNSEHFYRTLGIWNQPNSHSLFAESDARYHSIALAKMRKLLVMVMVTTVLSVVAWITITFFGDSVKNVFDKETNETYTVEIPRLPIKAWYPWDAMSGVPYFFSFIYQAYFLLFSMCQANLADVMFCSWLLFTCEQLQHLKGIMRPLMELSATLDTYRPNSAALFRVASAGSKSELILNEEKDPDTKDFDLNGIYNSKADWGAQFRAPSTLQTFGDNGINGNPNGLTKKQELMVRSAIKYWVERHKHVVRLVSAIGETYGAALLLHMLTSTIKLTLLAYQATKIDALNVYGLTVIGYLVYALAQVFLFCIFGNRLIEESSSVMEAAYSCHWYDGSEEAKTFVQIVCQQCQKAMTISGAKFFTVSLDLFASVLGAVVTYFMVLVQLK
# From the text: (§1) The coding regions of ten AaegOR genes of interest (S3 File) and AaegOrco were synthesized by Twist Bioscience (San Francisco, CA, USA) and cloned into the pENTR plasmid. The Gateway LR directional cloning system (Invitrogen Corp., Carlsbad, CA, USA) was utilized to subclone AaegOR coding regions into the pSP64t-RFA oocyte expression plasmid. Plasmids were purified using the GeneJet Plasmid Miniprep Kit (ThermoFisher Scientific, Waltham, MA, USA). Purified plasmids were sequenced in both directions to confirm coding regions.
# (§2) Chemical compounds (S6 File) used in the deorphanization of AaegORs were purchased from Acros Organics (Morris, NJ, USA), Alfa Aesar (Ward Hill, MA, USA), and ThermoFisher Scientific (Waltham, MA, USA) at the highest purity available. Compounds were stored as 1M stocks in 100% DMSO. Serial dilutions of each compound were prepared in 10% DMSO and blended by chemical class.
# (§3) pSP64t-RFA: AaegOR clones were linearized using Xbal, and cRNAs were synthesized using the mMESSAGE mMACHINE ® SP6 kit (Life Technologies, Carlsbad, CA, USA). Xenopus laevis stage V-VII oocytes purchased from Xenopus1 (Dexter, MI, USA) were stored at 18°C in Incubation medium (ND96 96 with 5% dialyzed horse serum, 50μg/mL gentamycin, 100μg/mL streptomycin, 100μg/mL penicillin, and 550μg/mL sodium pyruvate). 30nL of cRNA was injected into multiple oocytes using a microinjection syringe pump (World Precision Instruments, Sarasota, FL, USA) maintained at 18°C for 48–72 hrs. Odorant blends were perfused across individual oocytes for 10–15 seconds, held at a resting membrane potential of -80 mV using an OC-725C oocyte clamp (Warner Instruments, LLC, Hamden, CT, USA). Induced currents were measured indirectly using the two-electrode voltage clamp technique (TEVC). Following each stimulus, currents were allowed to return to baseline before further stimulation. Data was captured using the Digidata 1550 B digitizer and PClamp10 software (Molecular Devices, San Jose, CA, USA). Concentration-response curves were generated by perfusing unitary odorants over oocytes at increasing concentrations from [10^-3M] to [10^-9M]. Data were analyzed using GraphPad Prism 8 (GraphPad Software Inc., La Jolla, CA, USA). At least two biological replicates were conducted at each concentration and for each compound. Data for at least seven oocytes responding to each compound was analyzed (S7 File).
# AaegOR10 = biological target: T2, AaegOR10 (Aedes aegypti, UniProt Q177X3); experiment: Two-electrode voltage clamp of Xenopus laevis oocytes expressing AaegOR10/Orco (blends, unitary compounds, concentration-response); settings: for Raw response, unitary compounds of blend Indoles 1: unitary compounds of Indoles 1, individual oocytes 1-9 (replicates); for Raw Data, concentration-response: first series, oocytes 1-8
# T2 sequence (Q177X3 1-375): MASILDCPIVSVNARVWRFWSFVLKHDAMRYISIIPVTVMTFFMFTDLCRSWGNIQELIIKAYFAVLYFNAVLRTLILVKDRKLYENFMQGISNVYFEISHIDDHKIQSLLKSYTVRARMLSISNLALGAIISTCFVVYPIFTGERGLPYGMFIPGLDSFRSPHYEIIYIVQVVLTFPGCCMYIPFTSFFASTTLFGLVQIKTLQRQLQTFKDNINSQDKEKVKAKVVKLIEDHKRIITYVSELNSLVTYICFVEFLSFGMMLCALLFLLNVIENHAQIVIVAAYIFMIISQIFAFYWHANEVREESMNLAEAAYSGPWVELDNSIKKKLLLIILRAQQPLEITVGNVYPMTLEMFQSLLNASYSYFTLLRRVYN
# T2 sequence (Q178U6 1-478 partner): T1 sequence (Q178U6 1-478 partner)
# From the text: as §1, §2, §3
# AaegOR13 = biological target: T3, AaegOR13 (Aedes aegypti, UniProt Q16Z13); experiment: Two-electrode voltage clamp of Xenopus laevis oocytes expressing AaegOR13/Orco (blends, unitary compounds, concentration-response); settings: for Raw data (Responses in nA), unitary compounds of Indoles 1, Alcohols 1, Alcohols 3: individual oocytes 1-7
# T3 sequence (Q16Z13 1-389): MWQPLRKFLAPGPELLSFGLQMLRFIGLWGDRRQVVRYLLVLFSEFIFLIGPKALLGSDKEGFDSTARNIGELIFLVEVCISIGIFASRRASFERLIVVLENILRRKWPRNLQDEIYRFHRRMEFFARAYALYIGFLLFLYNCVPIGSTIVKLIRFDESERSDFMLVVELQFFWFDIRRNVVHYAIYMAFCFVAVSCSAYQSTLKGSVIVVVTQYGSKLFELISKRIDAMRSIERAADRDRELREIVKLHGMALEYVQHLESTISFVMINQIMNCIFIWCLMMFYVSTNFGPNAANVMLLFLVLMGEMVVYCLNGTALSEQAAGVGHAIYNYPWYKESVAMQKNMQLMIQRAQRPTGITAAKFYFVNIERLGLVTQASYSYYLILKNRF
# T3 sequence (Q178U6 1-478 partner): T1 sequence (Q178U6 1-478 partner)
# How it was run: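 Xenopus oocytes injected with cRNA for AaegOR plus Orco, kept 48–72 hrs at 18°C, clamped at -80 mV by TEVC. Odorant blends or single compounds (10% DMSO dilutions) perfused 10–15 s; concentration-response from 10^-3M to 10^-9M, ≥7 responding oocytes, ≥2 biological replicates.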
SMILES,"Raw Data (Responses in nA), Indoles 1 unitary compounds (AaegOR55)","Raw response, unitary compounds of blend Indoles 1 (AaegOR10)","Raw data (Responses in nA), unitary compounds of Indoles 1, Alcohols 1, Alcohols 3 (AaegOR13)",other results
"Cc1[nH]c2ccccc2c1C [2,3-dimethylindole]",235.0 nA and 140.0 nA and 250.0 nA and 300.0 nA and 185.0 nA and 305.0 nA and 295.0 nA,70.0 nA and 20.0 nA and 0.0 nA (4×) and 10.0 nA (2×) and 30.0 nA,0.0 nA (6×) and 5.0 nA,"EC50 (AaegOR55; AaegOR55/Orco expressing oocytes, TEVC, concentration-response of normalized current): 8.65 µM; Raw Data (Responses in nA), concentration-response (AaegOR55; concentration 1e-7 M): 10.0 nA (6×) and 15.0 nA (2×) and 5.0 nA; Raw Data (Responses in nA), concentration-response (AaegOR55; concentration 5e-7 M): 30.0 nA (4×) and 20.0 nA (2×) and 15.0 nA and 40.0 nA and 45.0 nA; Raw Data (Responses in nA), concentration-response (AaegOR55; concentration 1e-6 M): 20.0 nA (2×) and 10.0 nA and 30.0 nA (2×) and 15.0 nA and 35.0 nA and 40.0 nA and 55.0 nA; Raw Data (Responses in nA), concentration-response (AaegOR55; concentration 5e-6 M): 70.0 nA and 25.0 nA and 80.0 nA and 60.0 nA (2×) and 110.0 nA and 120.0 nA and 190.0 nA (2×); Raw Data (Responses in nA), concentration-response (AaegOR55; concentration 1e-5 M): 90.0 nA (2×) and 25.0 nA and 120.0 nA and 80.0 nA and 140.0 nA and 170.0 nA and 260.0 nA (2×); Raw Data (Responses in nA), concentration-response (AaegOR55; concentration 5e-5 M): 165.0 nA and 40.0 nA and 210.0 nA and 140.0 nA and 170.0 nA and 220.0 nA and 240.0 nA and 430.0 nA and 380.0 nA; Raw Data (Responses in nA), concentration-response (AaegOR55; concentration 0.0001 M): 160.0 nA and 55.0 nA and 210.0 nA (3×) and 140.0 nA and 180.0 nA and 440.0 nA and 380.0 nA"
Cc1cc2ccccc2[nH]1 [2-Methylindole],0.0 nA,0.0 nA,0.0 nA (6×) and 5.0 nA,
Cc1c[nH]c2ccccc12 [3-methylindole],160.0 nA and 85.0 nA and 170.0 nA and 235.0 nA and 120.0 nA and 225.0 nA and 245.0 nA,270.0 nA and 500.0 nA and 120.0 nA and 40.0 nA and 80.0 nA and 320.0 nA and 70.0 nA and 180.0 nA and 30.0 nA,0.0 nA and 5.0 nA (5×) and 10.0 nA,"response of AaegOR55 to unitary compounds (AaegOR55; AaegOR55/Orco expressing oocytes, TEVC, individual compounds): responded; Raw Data, concentration-response (AaegOR10; 5e-7 M): 90.0 nA; Raw Data, concentration-response (AaegOR10; 1e-5 M): 100.0 nA; EC50 (AaegOR10; AaegOR10/Orco expressing oocytes, TEVC, concentration-response of normalized current): 0.16 µM"
"CCc1ccc(O)cc1 [4-ethylphenol, 4-Ethylphenol]",5.0 nA (5×) and 0.0 nA (2×),0.0 nA,70.0 nA and 740.0 nA and 340.0 nA and 310.0 nA and 300.0 nA and 275.0 nA and 250.0 nA,"EC50 (AaegOR13; AaegOR13/Orco expressing oocytes, TEVC, concentration-response of normalized current): ~0.17 µM and 0.17 µM"
O=Cc1c[nH]c2ccccc12 [indole-3-carboxaldehyde],50.0 nA and 25.0 nA (2×) and 40.0 nA and 20.0 nA and 45.0 nA and 35.0 nA,80.0 nA and 30.0 nA and 100.0 nA and 20.0 nA (2×) and 70.0 nA and 0.0 nA (3×),,
c1ccc2[nH]ccc2c1 [indole],40.0 nA (2×) and 15.0 nA and 30.0 nA (2×) and 25.0 nA (2×),0.0 nA (6×) and 80.0 nA and 10.0 nA (2×),0.0 nA (3×) and 5.0 nA (4×),
COC(=O)c1c[nH]c2ccccc12 [methyl indole-3-carboxylate],,0.0 nA (6×) and 10.0 nA (2×) and 30.0 nA,0.0 nA and 20.0 nA and 15.0 nA (2×) and 10.0 nA (3×),
